Experimental data from patent US12528761B2, “Thyromimetics” (Autobahn Therapeutics, Inc., priority 2020, dated 2026).
Read-outs that look alike come from different tables or passages of the source.

How the values were obtained:
TRα = target: T1, TRα (Homo sapiens, UniProt P10827); test: TR reporter-gene assay (Gal4 DBD hybrid, luciferase), TRα; assay type: cell-based
T1 construct: expressed in transfected cells; host or cells: HEK293
T1 sequence (P10827 1-410 isoform P10827-2): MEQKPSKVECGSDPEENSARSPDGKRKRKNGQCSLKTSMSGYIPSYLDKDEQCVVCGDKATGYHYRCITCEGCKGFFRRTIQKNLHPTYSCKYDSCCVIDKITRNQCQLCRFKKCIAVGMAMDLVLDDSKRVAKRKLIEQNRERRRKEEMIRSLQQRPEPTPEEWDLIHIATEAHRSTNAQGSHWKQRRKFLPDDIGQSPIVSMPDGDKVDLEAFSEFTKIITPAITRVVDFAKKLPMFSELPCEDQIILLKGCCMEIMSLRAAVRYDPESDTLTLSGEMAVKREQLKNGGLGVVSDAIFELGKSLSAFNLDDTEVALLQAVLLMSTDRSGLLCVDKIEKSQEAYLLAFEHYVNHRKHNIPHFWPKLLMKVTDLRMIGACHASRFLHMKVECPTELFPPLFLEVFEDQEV
Outline: (§1)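 HEK293 reporter cells expressing Gal4-DBD/TR ligand-binding hybrids driving firefly luciferase from a Gal4 UAS; cells pre-incubated 6 h, then treated 24 h at 37 °C in medium with 10% charcoal-stripped FBS (final DMSO 0.1–0.4%), in duplicate. Read-out was luminescence (RLU).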

TRβ = target: T2, TRβ (Homo sapiens, UniProt P10828); test: TR reporter-gene assay (Gal4 DBD hybrid, luciferase), TRβ; assay type: cell-based; conditions: for T3-SI (selectivity index, EC50 (TRα)/EC50 (TRβ)): class symbols
T2 construct: expressed in transfected cells; host or cells: HEK293
T2 sequence (P10828 217-461 limits assumed): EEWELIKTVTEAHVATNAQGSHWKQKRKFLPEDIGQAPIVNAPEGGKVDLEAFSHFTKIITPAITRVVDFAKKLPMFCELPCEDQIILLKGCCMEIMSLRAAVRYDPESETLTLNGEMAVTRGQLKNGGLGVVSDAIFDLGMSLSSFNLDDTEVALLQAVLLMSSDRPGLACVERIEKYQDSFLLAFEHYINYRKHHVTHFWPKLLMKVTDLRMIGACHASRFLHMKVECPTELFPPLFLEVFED
Outline: as §1

[1] = HEK293-derived reporter cells, 24 hr treatment, read-out: TRα EC50
[2] = HEK293-derived reporter cells, 24 hr treatment, read-out: TRβ EC50

| SMILES | EC50 (TRα; [1]) | EC50 (TRβ; [2]) | T3-SI (selectivity index, EC50 (TRα)/EC50 (TRβ)) (TRβ) | EC50 (TRα) | EC50 (TRβ) |
| --- | --- | --- | --- | --- | --- |
| Cc1cc(NCC(=O)O)c(F)c(Cl)c1Cc1ccc(O)c(C(C)C)c1 [Compound 222, (3-chloro-2-fluoro-4-(4-hydroxy-3-isopropylbenzyl)-5-methylphenyl)glycine] | 10 to 100 nM | 10 to 100 nM | ++ (3× < T3-SI ≤ 30×) | – | – |
| O=C(O)CCc1cc(Cl)c(Cc2ccc(O)c(-c3cc(OC(F)F)ccc3F)c2F)c(Cl)c1 [Compound 44, 3-(3,5-dichloro-4-((5′-(difluoromethoxy)-2,2′-difluoro-6-hydroxy-[1,1′-biphenyl]-3-yl)methyl)phenyl)propanoic acid] | 10 to 100 nM | < 10 nM | ++ (3× < T3-SI ≤ 30×) | – | – |
| CC(C)c1c(O)ccc(Cc2c(Cl)cc(/C=C/C(=O)O)cc2Cl)c1F [Compound 88, (E)-3-(3,5-dichloro-4-(2-fluoro-4-hydroxy-3-isopropylbenzyl)phenyl)acrylic acid] | < 10 nM | < 10 nM | + (T3-SI ≤ 3×) | – | – |
| Cc1cc(SCC(=O)O)cc(Cl)c1Cc1ccc(O)c(C(C)C)c1 [Compound 123, 2-((3-chloro-4-(4-hydroxy-3-isopropylbenzyl)-5-methylphenyl)thio)acetic acid] | 100 to 1000 nM | 100 to 1000 nM | ++ (3× < T3-SI ≤ 30×) | – | – |
| CC(C)c1cc(Cc2c(Cl)cc(CNCC(=O)O)cc2Cl)ccc1O [Compound 30, (3,5-dichloro-4-(4-hydroxy-3-isopropylbenzyl)benzyl)glycine] | 100 to 1000 nM | 100 to 1000 nM | + (T3-SI ≤ 3×) | – | – |
| CC(C)c1cc(Cc2c(Cl)cc(SCC(=O)O)c(F)c2Cl)ccc1O [Compound 204, 2-((3,5-dichloro-2-fluoro-4-(4-hydroxy-3-isopropylbenzyl)phenyl)thio)acetic acid] | 10 to 100 nM | 10 to 100 nM | ++ (3× < T3-SI ≤ 30×) | – | – |
| CC(C)c1cc(Cc2c(Cl)cc(/C=C/C(=O)O)cc2Cl)ccc1O [Compound 86, (E)-3-(3,5-dichloro-4-(4-hydroxy-3-isopropylbenzyl)phenyl)acrylic acid] | 10 to 100 nM | 10 to 100 nM | + (T3-SI ≤ 3×) | – | – |
| CC(C)c1c(O)ccc(Cc2c(Cl)cc(CNCC(=O)O)cc2Cl)c1F [Compound 110, (3,5-dichloro-4-(2-fluoro-4-hydroxy-3-isopropylbenzyl)benzyl)glycine] | 10 to 100 nM | 100 to 1000 nM | + (T3-SI ≤ 3×) | – | – |
| Cc1c(F)c(CSCC(=O)O)cc(Cl)c1Cc1ccc(O)c(C(C)C)c1 [Compound 226, 2-((5-chloro-2-fluoro-4-(4-hydroxy-3-isopropylbenzyl)-3-methylbenzyl)thio)acetic acid] | 100 to 1000 nM | 100 to 1000 nM | ++ (3× < T3-SI ≤ 30×) | – | – |
| CC(C)c1c(O)ccc(Cc2c(Cl)cc(CC(=O)O)cc2Cl)c1F [Compound 32, 2-(3,5-dichloro-4-(2-fluoro-4-hydroxy-3-isopropylbenzyl)phenyl)acetic acid] | – | – | ++ (3× < T3-SI ≤ 30×) | 10 to 100 nM | < 10 nM |
| CC(C)c1c(O)ccc(Cc2c(Cl)cc(NCC(=O)O)c(F)c2Cl)c1F [Compound 78, (3,5-dichloro-2-fluoro-4-(2-fluoro-4-hydroxy-3-isopropylbenzyl)phenyl)glycine] | < 10 nM | < 10 nM | ++ (3× < T3-SI ≤ 30×) | – | – |
| CC(C)c1cc(Cc2c(Cl)cc(SCC(=O)O)cc2Cl)ccc1O [Compound 91, 2-((3,5-dichloro-4-(4-hydroxy-3-isopropylbenzyl)phenyl)thio)acetic acid] | 100 to 1000 nM | 100 to 1000 nM | ++ (3× < T3-SI ≤ 30×) | – | – |
| CC(C)c1cc(Cc2c(Cl)cc(CSCC(=O)O)cc2Cl)ccc1O [Compound 95, 2-((3,5-dichloro-4-(4-hydroxy-3-isopropylbenzyl)benzyl)thio)acetic acid] | 10 to 100 nM | 100 to 1000 nM | ++ (3× < T3-SI ≤ 30×) | – | – |
| CC(C)c1cc(Cc2c(Cl)cc(S(=O)(=O)CC(=O)O)cc2Cl)ccc1O [Compound 93, 2-((3,5-dichloro-4-(4-hydroxy-3-isopropylbenzyl)phenyl)sulfonyl)acetic acid] | > 1000 nM | > 1000 nM | ++ (3× < T3-SI ≤ 30×) | – | – |
| CC(C)c1c(O)ccc(Cc2c(Cl)cc(SCC(=O)O)cc2Cl)c1F [Compound 203, 2-((3,5-dichloro-4-(2-fluoro-4-hydroxy-3-isopropylbenzyl)phenyl)thio)acetic acid] | 10 to 100 nM | 10 to 100 nM | ++ (3× < T3-SI ≤ 30×) | – | – |
| CC(C)c1cc(Cc2c(Cl)cc(C[S+]([O-])CC(=O)O)cc2Cl)ccc1O (stereo not drawn) [Compound 96, 2-((3,5-dichloro-4-(4-hydroxy-3-isopropylbenzyl)benzyl)sulfinyl)acetic acid] | > 1000 nM | > 1000 nM | + (T3-SI ≤ 3×) | – | – |
| CC(c1ccc(F)cc1)c1c(O)ccc(Cc2c(Cl)cc(CCC(=O)O)cc2Cl)c1F (stereo not drawn) [Compound 18, 3-(3,5-dichloro-4-(2-fluoro-3-(1-(4-fluorophenyl)ethyl)-4-hydroxybenzyl)phenyl)propanoic acid] | 10 to 100 nM | 10 to 100 nM | + (T3-SI ≤ 3×) | – | – |
